In the NIST ThermoML archive (doi:10.1021/je400055v):

Conditions: Liquid, Vibrating tube method

Cc1cccc(O)c1 [3-methylphenol]
Conditions | mass density [kg/m3]
313.22 K, 1001 kPa | 1019.1
313.22 K, 2012 kPa | 1019.8
313.22 K, 3024 kPa | 1020.3
313.22 K, 4007 kPa | 1020.9
313.22 K, 4992 kPa | 1021.4
313.22 K, 6027 kPa | 1022
313.22 K, 7013 kPa | 1022.6
313.22 K, 8000 kPa | 1023.1
313.22 K, 9008 kPa | 1023.7
313.22 K, 10014 kPa | 1024.3
313.22 K, 11015 kPa | 1024.8
313.22 K, 12040 kPa | 1025.4
313.22 K, 13022 kPa | 1026
313.22 K, 14023 kPa | 1026.4
313.22 K, 15002 kPa | 1026.9
313.22 K, 16009 kPa | 1027.5
313.22 K, 17020 kPa | 1028
313.22 K, 18021 kPa | 1028.5
313.22 K, 19016 kPa | 1029
313.22 K, 20026 kPa | 1029.6
313.22 K, 21024 kPa | 1030.1
313.22 K, 22026 kPa | 1030.7
313.22 K, 23030 kPa | 1031.1
313.22 K, 24017 kPa | 1031.6
313.22 K, 25019 kPa | 1032.2
322.9 K, 1014 kPa | 1011.2
322.9 K, 2041 kPa | 1011.8
322.9 K, 3002 kPa | 1012.4
322.9 K, 4014 kPa | 1013
322.9 K, 5012 kPa | 1013.6
322.9 K, 6022 kPa | 1014.2
322.9 K, 7020 kPa | 1014.7
322.9 K, 8018 kPa | 1015.3
322.9 K, 9020 kPa | 1015.9
322.9 K, 10005 kPa | 1016.4
322.9 K, 11018 kPa | 1017
322.9 K, 12019 kPa | 1017.6
322.9 K, 13017 kPa | 1018.2
322.9 K, 14010 kPa | 1018.7
322.9 K, 15022 kPa | 1019.3
322.9 K, 16000 kPa | 1019.8
322.9 K, 17011 kPa | 1020.4
322.9 K, 18018 kPa | 1020.9
322.9 K, 19018 kPa | 1021.4
322.9 K, 20009 kPa | 1022
322.9 K, 21019 kPa | 1022.6
322.9 K, 22019 kPa | 1023.1
322.9 K, 23006 kPa | 1023.6
322.9 K, 24012 kPa | 1024.1
322.9 K, 25019 kPa | 1024.7
332.61 K, 1018 kPa | 1003.3
332.61 K, 2014 kPa | 1004
332.61 K, 3003 kPa | 1004.5
332.61 K, 4030 kPa | 1005.2
332.61 K, 5000 kPa | 1005.8
332.61 K, 6022 kPa | 1006.4
332.61 K, 7020 kPa | 1006.9
332.61 K, 8020 kPa | 1007.5
332.61 K, 9003 kPa | 1008.1
332.61 K, 10014 kPa | 1008.7
332.61 K, 11012 kPa | 1009.3
332.61 K, 12000 kPa | 1009.9
332.61 K, 13000 kPa | 1010.4
332.61 K, 14028 kPa | 1011
332.61 K, 15028 kPa | 1011.6
332.61 K, 16023 kPa | 1012.2
332.61 K, 17000 kPa | 1012.7
332.61 K, 18008 kPa | 1013.3
332.61 K, 19000 kPa | 1013.9
332.61 K, 20001 kPa | 1014.4
332.61 K, 21013 kPa | 1014.9
332.61 K, 22010 kPa | 1015.5
332.61 K, 23007 kPa | 1016
332.61 K, 24000 kPa | 1016.6
332.61 K, 25008 kPa | 1017.1
342.27 K, 2018 kPa | 995.8
342.27 K, 2999 kPa | 996.4
342.27 K, 3998 kPa | 997
342.27 K, 4976 kPa | 997.6
342.27 K, 5984 kPa | 998.3
342.27 K, 7059 kPa | 998.9
342.27 K, 8070 kPa | 999.7
342.27 K, 8967 kPa | 1000.2
342.27 K, 9994 kPa | 1000.8
342.27 K, 10921 kPa | 1001.4
342.27 K, 11964 kPa | 1002.1
342.27 K, 12971 kPa | 1002.6
342.27 K, 13954 kPa | 1003.2
342.27 K, 14960 kPa | 1004
342.27 K, 15941 kPa | 1004.3
342.27 K, 16963 kPa | 1005.1
342.27 K, 17992 kPa | 1005.8
342.27 K, 18963 kPa | 1006.2
342.27 K, 19996 kPa | 1006.7
342.27 K, 21003 kPa | 1007.5
342.27 K, 21974 kPa | 1008
342.27 K, 22968 kPa | 1008.7
342.27 K, 24051 kPa | 1009.2
342.27 K, 24971 kPa | 1009.7
352.06 K, 1951 kPa | 988.5
352.06 K, 2979 kPa | 989.1
352.06 K, 4034 kPa | 989.8
352.06 K, 4966 kPa | 990.3
352.06 K, 5929 kPa | 990.9
352.06 K, 7014 kPa | 991.6
352.06 K, 8011 kPa | 992.2
352.06 K, 8921 kPa | 992.8
352.06 K, 9982 kPa | 993.4
352.06 K, 10938 kPa | 994
352.06 K, 11975 kPa | 994.6
352.06 K, 12999 kPa | 995.3
352.06 K, 13907 kPa | 995.8
352.06 K, 14981 kPa | 996.5
352.06 K, 15966 kPa | 997.1
352.06 K, 16996 kPa | 997.7
352.06 K, 17984 kPa | 998.3
352.06 K, 18991 kPa | 998.9
352.06 K, 20005 kPa | 999.5
352.06 K, 21038 kPa | 1000.1
352.06 K, 22019 kPa | 1000.6
352.06 K, 23001 kPa | 1001.2
352.06 K, 24029 kPa | 1001.8
352.06 K, 24969 kPa | 1002.3
361.9 K, 1990 kPa | 980.5
361.9 K, 3001 kPa | 981.2
361.9 K, 4024 kPa | 981.8
361.9 K, 5019 kPa | 982.5
361.9 K, 6014 kPa | 983.1
361.9 K, 7025 kPa | 983.7
361.9 K, 8019 kPa | 984.4
361.9 K, 9010 kPa | 985
361.9 K, 9978 kPa | 985.6
361.9 K, 11019 kPa | 986.3
361.9 K, 12038 kPa | 986.9
361.9 K, 13020 kPa | 987.6
361.9 K, 14021 kPa | 988.2
361.9 K, 15006 kPa | 988.8
361.9 K, 15970 kPa | 989.4
361.9 K, 16988 kPa | 990.1
361.9 K, 17991 kPa | 990.7
361.9 K, 19016 kPa | 991.4
361.9 K, 20042 kPa | 992
361.9 K, 20983 kPa | 992.6
361.9 K, 22034 kPa | 993.3
361.9 K, 23021 kPa | 993.9
361.9 K, 24011 kPa | 994.6
361.9 K, 24912 kPa | 995.1

CCCCCCCCCCC [undecane]
mass density [kg/m3]
Conditions | 313.15 K | 323.1 K | 333.02 K | 342.09 K | 352.93 K | 362.91 K
1000 kPa | 726.6 | 719 | 711.3 | 703.9 | 696.5 | 688.8
2000 kPa | – | 719.8 | – | 704.8 | 697.4 | –
2001 kPa | 727.3 | – | 712.1 | – | – | 689.9
3000 kPa | – | 720.6 | 713 | – | – | 691
3001 kPa | 728 | – | – | 705.8 | 698.4 | –
4000 kPa | 728.7 | 721.4 | 713.8 | 706.7 | 699.4 | 692
5000 kPa | 729.5 | – | 714.7 | 707.6 | 700.4 | –
5001 kPa | – | 722.2 | – | – | – | 693.1
6000 kPa | – | 723 | 715.5 | 708.5 | 701.4 | –
6001 kPa | 730.2 | – | – | – | – | 694.1
7000 kPa | 731 | 723.8 | 716.4 | 709.4 | – | –
7001 kPa | – | – | – | – | 702.3 | 695.2
8000 kPa | 731.8 | 724.6 | – | 710.4 | 703.3 | 696.2
8001 kPa | – | – | 717.3 | – | – | –
9000 kPa | 732.6 | 725.5 | 718.1 | 711.2 | 704.3 | 697.2
10000 kPa | 733.4 | – | 719 | 712.2 | – | 698.2
10001 kPa | – | 726.3 | – | – | 705.2 | –
11000 kPa | 734.1 | 727.1 | 719.9 | 713.1 | 706.2 | 699.2
12000 kPa | 734.9 | 727.9 | 720.7 | 714 | 707.1 | –
12001 kPa | – | – | – | – | – | 700.2
13000 kPa | 735.7 | 728.7 | 721.5 | 714.8 | 708 | 701.1
14000 kPa | – | 729.5 | 722.4 | 715.7 | 709 | –
14001 kPa | 736.4 | – | – | – | – | 702.1
15000 kPa | 737.2 | – | 723.2 | 716.6 | 709.8 | –
15001 kPa | – | 730.3 | – | – | – | 703
16000 kPa | 737.9 | 731.1 | 724 | 717.4 | 710.7 | –
16001 kPa | – | – | – | – | – | 704
17000 kPa | 738.7 | 731.9 | 724.8 | 718.2 | 711.6 | –
17001 kPa | – | – | – | – | – | 704.9
18000 kPa | 739.4 | 732.6 | 725.6 | 719.1 | 712.5 | 705.8
19000 kPa | 740 | 733.3 | 726.3 | 719.9 | 713.3 | –
19001 kPa | – | – | – | – | – | 706.6
20000 kPa | 740.7 | 734 | 727.1 | 720.6 | 714.1 | 707.5
21000 kPa | – | 734.7 | 727.8 | 721.4 | 715 | 708.4
21001 kPa | 741.3 | – | – | – | – | –
22000 kPa | 742 | 735.4 | 728.5 | 722.2 | 715.7 | 709.2
23000 kPa | 742.6 | 736 | 729.2 | 722.9 | 716.5 | 710
23999 kPa | – | – | – | 723.6 | – | –
24000 kPa | 743.2 | 736.7 | 729.9 | – | 717.3 | 710.9
25000 kPa | 743.7 | 737.3 | 730.5 | 724.3 | 718 | 711.6
